The text below walks through data of patent US20210269434A1, “TRICYCLIC COMPOUNDS AS INHIBITORS OF KRAS” (Incyte Corporation, priority 2020, published 2021).

The target of this assay is KRAS G12D (Homo sapiens, UniProt P01116, G12D). The experiment in a line: GDP-GTP exchange assay (KRAS_G12D exchange). It counts as biochemical. Conditions: bodipy loaded KRAS G12D 2.5 nM; 4 hours incubation after GppNHp-SOS1; read-out: G12D_exchange. The method, then: Example A. GDP-GTP Exchange Assay
The inhibitor potency of the exemplified compounds was determined in a fluorescence based guanine nucleotide exchange assay, which measures the exchange of bodipy-GDP (fluorescently labeled GDP) for GppNHp (Non-hydrolyzable GTP analog) to generate the active state of KRAS in the presence of SOS1 (guanine nucleotide exchange factor). Inhibitors were serially diluted in DMSO and a volume of 0.1 μL was transferred to the wells of a black low volume 384-well plate. 5 μL/well volume of bodipy-loaded KRAS G12C diluted to 5 nM in assay buffer (25 mM Hepes pH 7.5, 50 mM NaCl, 10 mM MgCl2 and 0.01% Brij-35) was added to the plate and pre-incubated with inhibitor for 2 hours at ambient temperature. Appropriate controls (enzyme with no inhibitor or with a G12C inhibitor (AMG-510)) were included on the plate. The exchange was initiated by the addition of a 5 μL/well volume containing 1 mM GppNHp and 300 nM SOS1 in assay buffer. The 10 μL/well reaction concentration of the bodipy-loaded KRAS G12C, GppNHp, and SOS1 were 2.5 nM, 500 uM, and 150 nM, respectively. The reaction plates were incubated at ambient temperature for 2 hours, a time estimated for complete GDP-GTP exchange in the absence of inhibitor. For the KRAS G12D and G12V mutants, similar guanine nucleotide exchange assays were used with 2.5 nM as final concentration for the bodipy loaded KRAS proteins and with 4 hours and 3 hours incubation after adding GppNHp-SOS1 mixture for G12D and G12V respectively. A cyclic peptide described to selectively bind G12D mutant (Sakamoto et al., BBRC 484.3 (2017), 605-611) or internal compounds with confirmed binding were used as positive controls in the assay plates. Fluorescence intensities were measured on a PheraStar plate reader instrument (BMG Labtech) with excitation at 485 nm and emission at 520 nm.
Either GraphPad prism or XLfit was used to analyze the data. The IC50 values were derived by fitting the data to a four parameter logistic equation producing a sigmoidal dose-response curve with a variable Hill coefficient. Prism equation: Y=Bottom+(Top−Bottom)/(1+10^((Log lC50−X)*Hill slope)); XLfit equation: Y=(A+((B−A)/(1+((X/C)^D)))) where X is the logarithm of inhibitor concentration and Y is the response.

Sequence of KRAS G12D (P01116 1-188 isoform P01116-2 G12D): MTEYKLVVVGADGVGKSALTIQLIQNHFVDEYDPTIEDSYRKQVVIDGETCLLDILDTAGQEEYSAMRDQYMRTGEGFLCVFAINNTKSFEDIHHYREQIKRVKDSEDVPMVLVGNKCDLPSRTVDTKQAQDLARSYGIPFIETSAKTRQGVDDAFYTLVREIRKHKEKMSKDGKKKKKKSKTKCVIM

For `CN(C)C(=O)CCc1nc2c(N3CC(N(C)C)C3)nc3c(Cc4ccccc4)c(-c4cc(O)cc5ccccc45)c(CCC#N)cc3c2n1[C@@H]1[C@@H]2CN[C@H]1C2` (racemic) [Example 294, 3-(6-benzyl-1-((endo)-2-azabicyclo[2.1.1]hexan-5-yl)-8-(2-cyanoethyl)-4-(3-(dimethylamino)azetidin-1-yl)-7-(3-hydroxynaphthalen-1-yl)-1H-imidazo[4,5-c]quinolin-2-yl)-N,N-dimethylpropanamide], the IC50 is 100 to 1000 nM.
